According to patent US20240279214A1, “ALPHA4 BETA7 INEGRIN ANTAGONISTS AND USES THEREOF” (XinThera, Inc., priority 2022, published 2024):

The compounds below were run against T1, a4b7 integrin interaction with MadCAM-1 (Homo sapiens, UniProt P13612+P26010) (assay: a4b7 Cell Capture Assay (RPMI8866 cells on MAdCAM-1 Fc coated plates)). Details: 50% human serum, 1 mM MgCl2, 1 hour incubation, CellTiter-Glo luminescence, read-out: a4B7 cell capture assay RMPI8866-MadCAM EC50.
T1 construct: capture of a4b7 integrin expressing cells, RPMI8866; endogenous in cells; host or cells: RPMI8866
T1 sequence (P13612 34-1032): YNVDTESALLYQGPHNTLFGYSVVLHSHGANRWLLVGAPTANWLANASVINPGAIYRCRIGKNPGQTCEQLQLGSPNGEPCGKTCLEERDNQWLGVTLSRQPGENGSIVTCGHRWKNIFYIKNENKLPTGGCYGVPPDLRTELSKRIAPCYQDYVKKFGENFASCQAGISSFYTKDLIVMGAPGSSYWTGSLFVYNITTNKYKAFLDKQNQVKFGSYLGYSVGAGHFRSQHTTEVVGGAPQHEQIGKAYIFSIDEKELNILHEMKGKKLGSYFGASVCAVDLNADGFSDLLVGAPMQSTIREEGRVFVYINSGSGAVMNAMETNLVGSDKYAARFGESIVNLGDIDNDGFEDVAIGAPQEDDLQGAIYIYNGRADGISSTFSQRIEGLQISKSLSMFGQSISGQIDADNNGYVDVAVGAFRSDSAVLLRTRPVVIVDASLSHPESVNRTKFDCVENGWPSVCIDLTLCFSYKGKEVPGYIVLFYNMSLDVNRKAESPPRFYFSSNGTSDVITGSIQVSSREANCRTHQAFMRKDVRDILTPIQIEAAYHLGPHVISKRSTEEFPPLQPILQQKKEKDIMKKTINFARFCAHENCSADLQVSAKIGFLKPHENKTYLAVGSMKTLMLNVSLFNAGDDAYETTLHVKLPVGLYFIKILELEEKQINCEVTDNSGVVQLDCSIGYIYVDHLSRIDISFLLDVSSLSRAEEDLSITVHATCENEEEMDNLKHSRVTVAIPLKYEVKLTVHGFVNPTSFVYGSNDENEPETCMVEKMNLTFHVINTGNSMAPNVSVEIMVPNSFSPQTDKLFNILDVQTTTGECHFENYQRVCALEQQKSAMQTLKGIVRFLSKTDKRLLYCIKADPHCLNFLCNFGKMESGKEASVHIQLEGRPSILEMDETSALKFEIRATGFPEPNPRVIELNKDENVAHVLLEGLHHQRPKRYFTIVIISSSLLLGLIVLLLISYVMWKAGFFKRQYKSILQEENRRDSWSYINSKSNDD
T1 sequence (P26010 20-798): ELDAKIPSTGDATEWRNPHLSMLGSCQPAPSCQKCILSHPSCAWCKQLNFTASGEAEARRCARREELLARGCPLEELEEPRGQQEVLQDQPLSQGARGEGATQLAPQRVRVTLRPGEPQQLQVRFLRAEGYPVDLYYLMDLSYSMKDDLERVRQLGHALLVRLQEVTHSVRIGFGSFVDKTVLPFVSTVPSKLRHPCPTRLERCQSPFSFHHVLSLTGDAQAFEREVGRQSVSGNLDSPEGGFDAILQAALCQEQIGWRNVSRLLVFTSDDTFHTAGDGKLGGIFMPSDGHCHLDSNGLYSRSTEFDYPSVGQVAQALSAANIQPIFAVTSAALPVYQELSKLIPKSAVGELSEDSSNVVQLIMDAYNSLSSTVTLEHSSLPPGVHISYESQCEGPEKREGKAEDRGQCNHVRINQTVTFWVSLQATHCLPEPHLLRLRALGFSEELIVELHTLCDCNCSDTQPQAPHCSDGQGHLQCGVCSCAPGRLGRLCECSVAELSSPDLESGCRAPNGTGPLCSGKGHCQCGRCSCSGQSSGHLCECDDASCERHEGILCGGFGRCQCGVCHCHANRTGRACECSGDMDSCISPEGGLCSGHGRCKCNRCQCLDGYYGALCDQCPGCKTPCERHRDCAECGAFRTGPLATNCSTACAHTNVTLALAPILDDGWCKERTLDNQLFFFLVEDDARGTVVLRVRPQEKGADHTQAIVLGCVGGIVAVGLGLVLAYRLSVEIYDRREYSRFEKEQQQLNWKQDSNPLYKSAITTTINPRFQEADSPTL
Type: cell-based
Procedure: The potency of inhibitors in preventing a4b7 integrin interaction with MadCAM-1 was measured by monitoring the capture of a4b7 integrin expressing cells, RPMI8866, on recombinant human MAdCAM-1 Fc chimera protein-coated plates. The protein was a fusion between human MAdCAM-1 (Met1-Gln333, Accession #AAY82472) and human IgG1 (Pro100-Lys330)] (R&D Systems, Catalog #6056-MC). 96-well plates (Thermofisher, Catalog #136102) were coated with the recombinant protein by dispensing 100 μL (1.0 μg/mL) per well. After a quick spin to settle down the coating solution using a plate centrifuge, plates were incubated overnight at 4° C. in a moisture chamber. On Day 2, the plates were washed with PBS using a Bluecatbio Blue®Washer (GentleSpin wash, 3 cycles, pressure=1, volume 150 uL). Blocking solution (1.0% BSA in PBS, Sigma, Catalog #A7979) was then added at 200 uL/well, and the plates were quickly spun to settle down blocking buffer and incubated in cell culture incubator at 37° C. and 5% CO2 for 1 hour. The plates were then washed with 0.1% BSA in PBS using a Bluecatbio Blue®Washer (GentleSpin wash, 3 cycles, pressure=1, volume 150 uL). RPMI8866 cells suspended in assay medium (1 mM MgCl2 25 mM HEPES and 50% human serum, Sigma, Catalog #H4522) at a density of 1.0×10^6 cells/mL were added at 100 uL/well. Each compound evaluated was prepared as a DMSO stock solution. Test compounds were evaluated with a 9-point serial dilution curve (1000, 333.3, 111.1, 55.6, 27.8, 13.9, 6.9, 2.3, and 0.77 nM)) and were added to the plates using a Tecan D.30e Digita dispenser, the dispensed stock is 100 nL and the final DMSO concentration is 0.1%. Potent compounds were re-evaluated at a new 9-point serial dilution curve (100, 33.3, 11.1, 5.6, 2.8, 1.4, 0.69, 0.23, and 0.08 nM). Each titration curves were performed in triplicate on the same plate, and most of compounds were retested in different dates multiple times. The plates were shaken at 300 rpm on orbital plate shaker for 3 minutes to mix the cells and compounds, quickly spun to settle the cells and solution, and incubated in cell culture incubator at 37° C. and 5% CO2. After 1 hour incubation, the unbound cells were washed away with RPMI1640 medium supplemented with 1 mM MgCl2 and 1% BSA) (wash buffer) using a Bluecatbio Blue®Washer (MagbeadsSpin wash, 1 cycle, pressure 1, volume=150 uL). After wash buffer removal, A mixture of wash buffer/CellTiter-Glo® Reagent (Pormega, catalog #G7573) at 1:1 (V/V) was added at volume of 100 uL to each well. The plates were placed in a chamber at 25° C. and incubated for 30 minutes. Luminescence was recorded using a Envision plate reader 2105 according to CellTiter-Glo protocol.
The mean luminescence signals from negative control wells without MadCAM-1 coating and compound treatment (cells only) was defined as 100% binding inhibition, and the mean luminescence signals from positive control wells with MadCAM-1 coating but without compound treatment (MadCAM-1 and cells only) was defined as 0% binding inhibition. The luminescence signals from other compound treated wells were normalized in percentage scale accordingly. The normalized mean % inhibition data were plotted against logarithmic compound concentration in nanomolar and were fitted with 4-parameter logistic model to obtain IC50 for each compound.

Point of comparison: `Cc1cc2cc(c1F)[C@H](CC(=O)O)NC(=O)[C@@H](n1cc(CCN3CC(F)C3)c(C(F)(F)F)cc1=O)c1cc(ccc1F)COc1cc(Cl)cc(C)c1-2` (single isomer, unassigned) [Example 47], EC50 42 nM. Against it:
- Cc1cccc2c1-c1cc(c(F)c(C(F)(F)F)c1)[C@H](CC(=O)O)NC(=O)[C@@H](n1cc(CCN3CC(F)C3)c(C(F)(F)F)cc1=O)c1cc(ccc1F)CO2 (relative stereo) [Example 35, [(15R*,18S)-13,20-difluoro-15-{5-[2-(3-fluoroazetidin-1-yl)ethyl]-2-oxo-4-(trifluoromethyl)pyridin-1-yl}-3-methyl-16-oxo-21-(trifluoromethyl)-8-oxa-17-azatetracyclo[17.3.1.1^{10,14}.0^{2,7}]tetracosa-1(23),2(7),3,5,10,12,14(24),19,21-nonaen-18-yl]acetic acid] — 5.5-fold lower, 7.7 nM
- Cc1cc2cc(c1F)[C@H](CC(=O)O)NC(=O)[C@@H](n1cc(CCN3CC(F)C3)c(C(F)(F)F)cc1=O)c1cc(ccc1F)Oc1cccc(C(F)(F)F)c1-2 (relative stereo) [Example 28, [(14R*,17S)-12,19-difluoro-14-{5-[2-(3-fluoroazetidin-1-yl)ethyl]-2-oxo-4-(trifluoromethyl)pyridin-1-yl}-20-methyl-15-oxo-3-(trifluoromethyl)-8-oxa-16-azatetracyclo[16.3.1.1^{9,13}.0^{2,7}]tricosa-1(22),2(7),3,5,9,11,13(23),18,20-nonaen-17-yl]acetic acid] — 2.2-fold lower, 19 nM
- Cc1cc2cc(c1F)[C@H](CC(=O)O)NC(=O)[C@@H](n1ccc(C(F)(F)F)c(Cl)c1=O)c1cc(ccc1F)COc1cccc(C)c1-2 (relative stereo) [Example 79, [(15R*,18S)-15-[3-chloro-2-oxo-4-(trifluoromethyl)pyridin-1-yl]-13,20-difluoro-3,21-dimethyl-16-oxo-8-oxa-17-azatetracyclo[17.3.1.1^{10,14}.0^{2,7}]tetracosa-1(23),2(7),3,5,10,12,14(24),19,21-nonaen-18-yl]acetic acid] — higher, > 100 nM
- Cc1cc2cc(c1F)[C@H](CC(=O)O)NC(=O)[C@@H](n1cc(CCN3CC(F)C3)c(C(F)(F)F)cc1=O)c1cc(ccc1F)Oc1nn(C)c(C)c1-2 (relative stereo) [Example 40, rel-[(13S,16S)-11,18-difluoro-13-{5-[2-(3-fluoroazetidin-1-yl)ethyl]-2-oxo-4-(trifluoromethyl)pyridin-1-yl}-3,4,19-trimethyl-14-oxo-7-oxa-4,5,15-triazatetracyclo[15.3.1.1^{8,12}.0^{2,6}]docosa-1(21),2,5,8,10,12(22),17,19-octaen-16-yl]acetic acid] — the same, 42 nM
- Cc1cccc2c1-c1cc(c(C)s1)[C@H](CC(=O)O)NC(=O)[C@@H](n1cc(CCN3CC(F)C3)c(C(F)(F)F)cc1=O)c1cc(ccc1F)O2 (single isomer, unassigned) [Example 72] — 2.6-fold lower, 16 nM
- Cc1cc2cc(c1F)[C@H](CC(=O)O)NC(=O)[C@@H](n1cc(CCN3CC(F)C3)c(C(F)(F)F)cc1=O)c1cc(ccc1F)COc1ccc(F)cc1-2 (single isomer, unassigned) [Example 50] — higher, > 100 nM
- Cc1cccc2c1-c1cc(Cl)c(F)c(c1)[C@H](CC(=O)O)NC(=O)[C@@H](n1cc(CCN3CC(F)C3)c(C(F)(F)F)cc1=O)c1cc(ccc1F)O2 (relative stereo) [Example 25, [(14R*,17S)-20-chloro-12,19-difluoro-14-{5-[2-(3-fluoroazetidin-1-yl)ethyl]-2-oxo-4-(trifluoromethyl)pyridin-1-yl}-3-methyl-15-oxo-8-oxa-16-azatetracyclo[16.3.1.1^{9,13}.0^{2,7}]tricosa-1(22),2(7),3,5,9,11,13(23),18,20-nonaen-17-yl]acetic acid] — 21-fold lower, 2 nM
- Cc1cc2cc(c1F)[C@H](CC(=O)O)NC(=O)[C@@H](n1cc(CCN3CC(F)C3)c(C(F)(F)F)cc1=O)c1cc(cc(C(F)(F)F)c1)Oc1cccc(C)c1-2 (relative stereo) [Example 22, [(14R*,17S)-19-fluoro-14-{5-[2-(3-fluoroazetidin-1-yl)ethyl]-2-oxo-4-(trifluoromethyl)pyridin-1-yl}-3,20-dimethyl-15-oxo-11-(trifluoromethyl)-8-oxa-16-azatetracyclo[16.3.1.1^{9,13}.0^{2,7}]tricosa-1(22),2(7),3,5,9,11,13(23),18,20-nonaen-17-yl]acetic acid] — 4.2-fold lower, 9.9 nM
- Cc1cc2cc(c1F)[C@H](CC(=O)O)NC(=O)[C@@H](n1cc(CCN3CC(F)C3)c(C(F)(F)F)cc1=O)c1cc(ccc1Cl)Oc1cccc(C)c1-2 (relative stereo) [Example 59, [(14R*,17S)-12-chloro-19-fluoro-14-{5-[2-(3-fluoroazetidin-1-yl)ethyl]-2-oxo-4-(trifluoromethyl)pyridin-1-yl}-3,20-dimethyl-15-oxo-8-oxa-16-azatetracyclo[16.3.1.1^{9,13}.0^{2,7}]tricosa-1(22),2(7),3,5,9,11,13(23),18,20-nonaen-17-yl]acetic acid] — 35-fold lower, 1.2 nM
